This is an account of results in ChEMBL document CHEMBL5543097, “Synthesis and structure-activity relationships of novel 14-membered 2-fluoro ketolides with structural modification at the C11 position” (Eur J Med Chem, 2024).

Values after ≈ are worked out from the molar mass of the structure shown.

Series [1] has as its system Moraxella catarrhalis. The experiment in a line: Antibacterial activity against Moraxella catarrhalis BCA 19-5 assessed as inhibition of bacterial growth incubated for 24 hrs by CLSI based broth microdilution method. It is filed as functional. Particulars: Moraxella catarrhalis, BCA 19-5, 24 h, read-out: MIC.
The test system of series [2] is Moraxella catarrhalis. The experiment in a line: Antibacterial activity against Moraxella catarrhalis BCA 19-6 assessed as inhibition of bacterial growth incubated for 24 hrs by CLSI based broth microdilution method. It is filed as functional. Conditions: Moraxella catarrhalis, BCA 19-6, 24 h, read-out: MIC.
Series [3] concerns Moraxella catarrhalis. Put plainly: Antibacterial activity against Moraxella catarrhalis BCA 19-31 assessed as inhibition of bacterial growth incubated for 24 hrs by CLSI based broth microdilution method. In kind it is functional. Conditions: BCA 19-31, 24 h.
Series [4] concerns Haemophilus influenzae. The experiment in a line: Antibacterial activity against Haemophilus influenzae HIN 19-15 assessed as inhibition of bacterial growth incubated for 20 to 24 hrs by CLSI based broth microdilution method. It is filed as functional. Conditions: time 20-24 hrs.
For series [5], the system named is Haemophilus influenzae. Put plainly: Antibacterial activity against Haemophilus influenzae HIN 19-18 assessed as inhibition of bacterial growth incubated for 20 to 24 hrs by CLSI based broth microdilution method. In kind it is functional. Conditions: HIN 19-18, time 20-24 hrs.
Series [6] has as its system Haemophilus influenzae. Put plainly: Antibacterial activity against Haemophilus influenzae HIN 20-18 assessed as inhibition of bacterial growth incubated for 20 to 24 hrs by CLSI based broth microdilution method. In kind it is functional. Particulars: time 20-24 hrs.
Series [7] can be described thus: Cytotoxicity against mouse AML12 cells assessed as reduction in cell viability incubated for 48 hrs by MTT assay. It is filed as toxicity, cell-based.
Another series has as its system Streptococcus pyogenes. The experiment in a line: Antibacterial activity against erythromycin-resistant Streptococcus pyogenes ATCC 19615 assessed as inhibition of visible bacterial growth incubated for 18 hrs by broth microdilution method. In kind it is functional.
For another series, the system named is Streptococcus agalactiae. Put plainly: Antibacterial activity against erythromycin-resistant Streptococcus agalactiae 19-9 assessed as inhibition of visible bacterial growth incubated for 18 hrs by broth microdilution method. It is filed as functional.
For series [8], the system named is Streptococcus pneumoniae. Put plainly: Antibacterial activity against erythromycin-resistant Streptococcus pneumoniae SPN19-14 assessed as inhibition of visible bacterial growth incubated for 18 hrs by broth microdilution method. In kind it is functional.
Series [9] concerns Streptococcus pneumoniae. Put plainly: Antibacterial activity against erythromycin-resistant Streptococcus pneumoniae SPN19-13 assessed as inhibition of visible bacterial growth incubated for 18 hrs by broth microdilution method. In kind it is functional.
For series [10], the system named is Streptococcus pneumoniae. The experiment in a line: Antibacterial activity against erythromycin-resistant Streptococcus pneumoniae SPN19-8 assessed as inhibition of visible bacterial growth incubated for 18 hrs by broth microdilution method. It is filed as functional.
In series [11] the test system is Staphylococcus epidermidis. The experiment in a line: Antibacterial activity against erythromycin-resistant Staphylococcus epidermidis 19-11 assessed as inhibition of visible bacterial growth incubated for 18 hrs by broth microdilution method. In kind it is functional.
Series [12] deals with Staphylococcus epidermidis. The experiment in a line: Antibacterial activity against erythromycin-resistant Staphylococcus epidermidis 19-9 assessed as inhibition of visible bacterial growth incubated for 18 hrs by broth microdilution method. In kind it is functional.
The subject of series [13] is Staphylococcus epidermidis. The experiment in a line: Antibacterial activity against erythromycin-resistant Staphylococcus epidermidis 19-8 assessed as inhibition of visible bacterial growth incubated for 18 hrs by broth microdilution method. It is filed as functional.
For series [14], the system named is Staphylococcus epidermidis. Put plainly: Antibacterial activity against erythromycin-resistant Staphylococcus epidermidis 19-6 assessed as inhibition of visible bacterial growth incubated for 18 hrs by broth microdilution method. It is filed as functional.
Series [15] concerns Staphylococcus epidermidis. The experiment in a line: Antibacterial activity against erythromycin-resistant Staphylococcus epidermidis 19-4 assessed as inhibition of visible bacterial growth incubated for 18 hrs by broth microdilution method. In kind it is functional.
The subject of series [16] is Staphylococcus epidermidis. The experiment in a line: Antibacterial activity against erythromycin-resistant Staphylococcus epidermidis 19-5 assessed as inhibition of visible bacterial growth incubated for 18 hrs by broth microdilution method. In kind it is functional.

As for `CC[C@H]1OC(=O)[C@@](C)(F)C(=O)[C@H](C)[C@@H](O[C@@H]2O[C@H](C)C[C@H](N(C)C)[C@H]2O)[C@](C)(OC)C[C@@H](C)C(=O)[C@H](C)[C@H]2N(CCCOC(=O)Nc3cc(C)ccc3C)C(=O)O[C@]12C`, the MIC is 0.125 mg/L (≈ 0.15 µM) with Moraxella catarrhalis [1]; 0.125 mg/L (≈ 0.15 µM) in the series with Moraxella catarrhalis [2]; 0.125 mg/L (≈ 0.15 µM) with Moraxella catarrhalis [3]; 8 mg/L (≈ 9.57 µM) with Haemophilus influenzae [4]; 8 mg/L (≈ 9.57 µM) with Haemophilus influenzae [5]; 16 mg/L (≈ 19.1 µM) in the series on Haemophilus influenzae [6]. In addition, in series [7], the CC50 at 48 h was 33.1 µM.

For the compound `CC[C@H]1OC(=O)[C@@](C)(F)C(=O)[C@H](C)[C@@H](O[C@@H]2O[C@H](C)C[C@H](N(C)C)[C@H]2O)[C@](C)(OC)C[C@@H](C)C(=O)[C@H](C)[C@H]2N(CCCOC(=O)Nc3ccc(Cl)cc3)C(=O)O[C@]12C`, the MIC was under 0.03 mg/L in the series on Streptococcus pyogenes; 1 mg/L (≈ 1.19 µM) in the series with Streptococcus agalactiae; 0.125 mg/L (≈ 0.148 µM) in the series on Streptococcus pneumoniae [8]; 0.125 mg/L (≈ 0.148 µM) with Streptococcus pneumoniae [9]; 0.25 mg/L (≈ 0.297 µM) with Streptococcus pneumoniae [10]; under 0.03 mg/L in series [11]. Further, the MIC in [12] is 0.125 mg/L (≈ 0.148 µM); in series [13], 0.03 mg/L (≈ 0.0356 µM); in series [14], under 0.03 mg/L; in series [15] it was 0.03 mg/L (≈ 0.0356 µM); in series [16] it was under 0.03 mg/L; with Moraxella catarrhalis [1] it was 9.12 mg/L (≈ 10.8 µM). Also, the MIC in the series with Moraxella catarrhalis [2] was 0.25 mg/L (≈ 0.297 µM); with Moraxella catarrhalis [3], 11.1 mg/L (≈ 13.2 µM); in the series with Haemophilus influenzae [4], 8 mg/L (≈ 9.5 µM); in the series on Haemophilus influenzae [5], 8 mg/L (≈ 9.5 µM); with Haemophilus influenzae [6] it was 16 mg/L (≈ 19 µM). For the same compound, the CC50 at 48 h in [7] was 26 µM.

Regarding `CC[C@H]1OC(=O)[C@@](C)(F)C(=O)[C@H](C)[C@@H](O[C@@H]2O[C@H](C)C[C@H](N(C)C)[C@H]2O)[C@](C)(OC)C[C@@H](C)C(=O)[C@H](C)[C@H]2N(CCCOC(=O)Nc3cc(C)oc3C(F)(F)F)C(=O)O[C@]12C`, the MIC in the series with Moraxella catarrhalis [1] was 0.5 mg/L (≈ 0.568 µM); in the series with Moraxella catarrhalis [2], 0.5 mg/L (≈ 0.568 µM); with Moraxella catarrhalis [3], 0.5 mg/L (≈ 0.568 µM); in the series with Haemophilus influenzae [4], 0.5 mg/L (≈ 0.568 µM); in the series with Haemophilus influenzae [5] it was 4 mg/L (≈ 4.55 µM); in the series with Haemophilus influenzae [6] it was over 16 mg/L. Further, the CC50 at 48 h in series [7] turned out to be 35.9 µM.

Regarding `CC[C@H]1OC(=O)[C@@](C)(F)C(=O)[C@H](C)[C@@H](O[C@@H]2O[C@H](C)C[C@H](N(C)C)[C@H]2O)[C@](C)(OC)C[C@@H](C)C(=O)[C@H](C)[C@H]2N(CCCOC(=O)Nc3cccc(F)c3C)C(=O)O[C@]12C`, the MIC with Streptococcus pyogenes is under 0.03 mg/L; in the series with Streptococcus agalactiae it was 0.5 mg/L (≈ 0.595 µM); with Streptococcus pneumoniae [8], 0.125 mg/L (≈ 0.149 µM); with Streptococcus pneumoniae [9], 0.125 mg/L (≈ 0.149 µM); with Streptococcus pneumoniae [10], 0.25 mg/L (≈ 0.298 µM); in [11] it was under 0.03 mg/L. The MIC in series [12] was 0.5 mg/L (≈ 0.595 µM); in [13], 0.06 mg/L (≈ 0.0714 µM); in series [14], 0.125 mg/L (≈ 0.149 µM); in series [15], 0.06 mg/L (≈ 0.0714 µM); in series [16] it was under 0.03 mg/L; in the series on Moraxella catarrhalis [1], 0.125 mg/L (≈ 0.149 µM). Also, the MIC with Moraxella catarrhalis [2] was found to be 0.45 mg/L (≈ 0.536 µM); in the series with Moraxella catarrhalis [3], 0.06 mg/L (≈ 0.0714 µM); in the series on Haemophilus influenzae [4] it was 8 mg/L (≈ 9.52 µM); in the series on Haemophilus influenzae [5], 4 mg/L (≈ 4.76 µM); in the series with Haemophilus influenzae [6], 16 mg/L (≈ 19 µM). Also, the CC50 at 48 h in series [7] was determined as 36.7 µM.

For `CC[C@H]1OC(=O)[C@@](C)(F)C(=O)[C@H](C)[C@@H](O[C@@H]2O[C@H](C)C[C@H](N(C)C)[C@H]2O)[C@](C)(OC)C[C@@H](C)C(=O)[C@H](C)[C@H]2N(CCCOC(=O)Nc3ccc(Cl)cc3C)C(=O)O[C@]12C`, the MIC is under 0.03 mg/L with Streptococcus pyogenes; 0.5 mg/L (≈ 0.584 µM) in the series with Streptococcus agalactiae; 0.125 mg/L (≈ 0.146 µM) in the series with Streptococcus pneumoniae [8]; 0.125 mg/L (≈ 0.146 µM) in the series with Streptococcus pneumoniae [9]; 0.25 mg/L (≈ 0.292 µM) in the series with Streptococcus pneumoniae [10]; 0.06 mg/L (≈ 0.0701 µM) in series [11]. Besides, the MIC in series [12] is under 0.03 mg/L; in series [13], 0.125 mg/L (≈ 0.146 µM); in [14], 0.125 mg/L (≈ 0.146 µM); in series [15], 0.03 mg/L (≈ 0.035 µM); in series [16] it was under 0.03 mg/L; in the series with Moraxella catarrhalis [1], 0.125 mg/L (≈ 0.146 µM). The MIC in the series on Moraxella catarrhalis [2] came to 0.25 mg/L (≈ 0.292 µM); in the series on Moraxella catarrhalis [3] it was 0.125 mg/L (≈ 0.146 µM); in the series on Haemophilus influenzae [4], 8 mg/L (≈ 9.34 µM); with Haemophilus influenzae [5] it was 4 mg/L (≈ 4.67 µM); in the series on Haemophilus influenzae [6], 16 mg/L (≈ 18.7 µM). In series [7], the cytotoxic concentration (CC50) at 48 h came out at 12.8 µM.
